This passage reports Ki results from patent EP1301480B1, “1,3-DISUBSTITUTED AND 1,3,3-TRISUBSTITUTED PYRROLIDINES AS HISTAMINE-3 RECEPTOR LIGANDS AND THEIR THERAPEUTIC APPLICATIONS” (ABBOTT LABORATORIES, priority 2000, dated 2002).

The assay addresses T1, histamine-3 receptor (Rattus norvegicus, UniProt Q9QYN8).
T1 construct: from tissue; host or cells: male Sprague-Dawley rat brain cortex membranes
Description: Histamine-3 receptor binding: displacement of (3H)-N-α-methylhistamine from rat cortical membranes. On the set-up: species or system male Sprague-Dawley rat. The conditions noted are these: (3H)-N-α-methylhistamine (~0.6 nM), 30 minutes at 25 °C, pH 7.7, Cheng-Prusoff equation. The protocol: Briefly, male Sprague-Dawley rat brain cortices were homogenized (1 g tissue/10 mL buffer) in 50 mM Tris-HCl/5 mM EDTA containing protease inhibitor cocktail (Calbiochem) using a polytron set at 20,500 rpm. Homogenates were centrifuged for 20 minutes at 40,000xg. The supernatant was decanted, and pellets were weighed. The pellet was resuspended by polytron homogenization in 40 mL 50 mM Tris-HCI/5 mM EDTA with protease inhibitors and centrifuged for 20 minutes at 40,000xg. […] Test compounds were dissolved in DMSO to provide a 20 mM solution, serially diluted and then added to the incubation mixtures prior to initiating the incubation assay by addition of the membranes. Thioperamide (3 µM) was used to determine nonspecific binding. Binding incubations were conducted for 30 minutes at 25 °C and terminated by addition of 2 mL of ice cold 50 mM Tris-HCl (pH 7.7) and filtration through 0.3% polyethylenimine-soaked Unifilter plates (Packard). These filters were washed 4 additional times with 2 mL of ice-cold 50 mM Tris-HCl and dried for 1 hour. Radioactivity was determined using liquid scintillation counting techniques. Results were analyzed by Hill transformation and Ki values were determined using the Cheng-Prusoff equation.

T1 sequence (Q9QYN8 whole entry): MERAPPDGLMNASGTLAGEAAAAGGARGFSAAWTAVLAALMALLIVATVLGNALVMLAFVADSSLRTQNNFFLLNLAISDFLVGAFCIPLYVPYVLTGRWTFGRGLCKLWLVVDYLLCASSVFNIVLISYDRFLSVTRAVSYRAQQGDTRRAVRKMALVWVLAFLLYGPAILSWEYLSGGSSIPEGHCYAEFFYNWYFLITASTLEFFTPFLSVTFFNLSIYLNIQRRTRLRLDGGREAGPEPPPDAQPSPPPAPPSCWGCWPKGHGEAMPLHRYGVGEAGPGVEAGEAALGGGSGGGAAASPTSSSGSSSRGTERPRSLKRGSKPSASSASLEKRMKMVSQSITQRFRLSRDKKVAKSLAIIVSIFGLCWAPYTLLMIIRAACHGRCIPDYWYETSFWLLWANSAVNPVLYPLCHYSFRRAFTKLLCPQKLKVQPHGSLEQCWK

“N-{(3R)-1-[3-(4-acetylphenoxy)propyl]pyrrolidinyl}-4-(trifluoromethoxy)benzenesulfonamide [Example 73]”: the Ki is 6.4 nM. This lies in the single-digit nanomolar range. The same measure for “1-(4-{3-[(3R)-3-aminopyrrolidinyl]propoxy}phenyl)-1-propanone [Example 7]”: 31 nM; for `CC(C)C1(O)CCN(CCCOc2ccc(-c3ccc(C#N)cc3)cc2)C1` (centres unmarked) [Example 157]: 593 nM; for `N#Cc1ccc(-c2ccc(OCCCN3CC[C@@H](O)C3)cc2)cc1` [Example 153, 4'-{3-[(3R)-3-hydroxypyrrolidinyl]propoxy}[1,1'-biphenyl]-4-carbonitrile]: 42 nM. As to `N#Cc1ccc(-c2ccc(OCCCN3CC[C@H](O)C3)cc2)cc1` [Example 155, 4'-{3-[(3S)-3-hydroxypyrrolidinyl]propoxy}[1,1'-biphenyl]-4-carbonitrile], the Ki came to 105 nM. To `CC1(O)CCN(CCCOc2ccc(-c3ccc(C#N)cc3)cc2)C1` (centres unmarked) [Example 156, 4'-[3-(3-hydroxy-3-methyl-1-pyrrolidinyl)propoxy][1,1'-biphenyl]-4-carbonitrile] belongs 45 nM; to `O=C(c1ccc(OCCCN2CC[C@@H](O)C2)cc1)C1CC1` [Example 152, cyclopropyl(4-{3-[(3R)-3-hydroxypyrrolidinyl]propoxy}phenyl)methanone], 8.7 nM. To `C[C@@]1(O)CCN(CCCOc2ccc(-c3ccc(C#N)cc3)cc2)C1` [Example 158, 4'-{3-[(3R)-3-hydroxy-3-methylpyrrolidinyl]propoxy}[1,1'-biphenyl]-4-carbonitrile] belongs 15 nM; to `N#Cc1ccc(-c2ccc(OCCCN3CCC(=O)C3)cc2)cc1` [Example 154, 4'-[3-(3-oxo-1-pyrrolidinyl)propoxy][1,1'-biphenyl]-4-carbonitrile], 63 nM; to `CC(C)(C)OC(=O)NC1CCN(CCCOc2ccc(-c3ccc(C#N)cc3)cc2)C1` (centres unmarked) [Example 98, tert-butyl 1-{3-[(4'-cyano[1,1'-biphenyl]-4-yl)oxy]propyl}-3-pyrrolidinylcarbamate], 90 nM. To `CC(=O)c1ccc(OCCCN2CCC(N3C(=O)NC(C(C)C)C3=O)C2)cc1` [Example 10, (5R)-3-{(3R)-1-[3-(4-acetylphenoxy)propyl]pyrrolidinyl}-5-isopropyl-2,4-imidazolidinedione] belongs 626 nM. Regarding `O=C(c1ccc(OCCCN2CCC(O)C2)cc1)C1CC1` (centres unmarked) [Example 151, cyclopropyl{4-[3-(3-hydroxy-1-pyrrolidinyl)propoxy]phenyl}methanone], the Ki is 22 nM. “N-((3R)-1-{3-[4-(cyclopropylcarbonyl)phenoxy]propyl}pyrrolidinyl)-4-isopropylbenzenesulfonamide [Example 67]”: the inhibition constant (Ki) came out at 2.9 nM. To `CN(C)[C@@H]1CCN(CCCOc2ccc(-c3ccc(C#N)cc3)cc2)C1` [Example 108, 4'-{3-[(3R)-3-(dimethylamino)pyrrolidinyl]propoxy}[1,1'-biphenyl]-4-carbonitrile] belongs 12 nM.

A word on the Ki: it is the equilibrium dissociation constant of an inhibitor or competing ligand from its target. Low values mean higher affinity, high ones lower affinity.
